Data as given in PubChem BioAssay AID248 (DTP/NCI, 2004).
“And” between values parts separate entries of the source, which are not always exact repeats. Equal entries are not always repeated. Inconclusive results and toxic doses are left out. Cut-off read from the data, not from the text of the source: active = T/C of 150% or more; inactive = T/C below 125%.

Test system: L1210 leukemia ip in BDF1 mice, survival T/C
Experiment: NCI In Vivo Anticancer Drug Screen. Data for tumor model L1210 Leukemia (intraperitoneal) in B6D2F1 (BDF1) mice
Conditions: endpoint: mean survival time, higher = longer survival
Outline: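 Read-out is survival time, reported as the treated-group measurement over the vehicle-control measurement.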

[1] = dose: 100.0 mg/kg/injection, schedule: Q01DX001 (ip), vehicle: saline with Tween-80
[2] = dose: 200.0 mg/kg/injection, schedule: Q01DX001 (ip), vehicle: saline with Tween-80
[3] = dose: 100.0 mg/kg/injection, schedule: Q04DX003 (ip), vehicle: Klucel (hydroxypropylcellulose) (HPC)
[4] = dose: 200.0 mg/kg/injection, schedule: Q04DX003 (ip), vehicle: Klucel (hydroxypropylcellulose) (HPC)
[5] = dose: 400.0 mg/kg/injection, schedule: Q04DX003 (ip), vehicle: Klucel (hydroxypropylcellulose) (HPC)
[6] = dose: 100.0 mg/kg/injection, schedule: Q04DX002 (ip), vehicle: Klucel (hydroxypropylcellulose) (HPC)
[7] = dose: 200.0 mg/kg/injection, schedule: Q04DX002 (ip), vehicle: Klucel (hydroxypropylcellulose) (HPC)
[8] = dose: 100.0 mg/kg/injection, schedule: Q04DX002 (ip), vehicle: saline with Tween-80
[9] = dose: 200.0 mg/kg/injection, schedule: Q04DX002 (ip), vehicle: saline with Tween-80
[10] = dose: 100.0 mg/kg/injection, schedule: Q01DX001 (ip), vehicle: carboxymethylcellulose (CMC)
[11] = dose: 200.0 mg/kg/injection, schedule: Q01DX001 (ip), vehicle: carboxymethylcellulose (CMC)
[12] = dose: 400.0 mg/kg/injection, schedule: Q01DX001 (ip), vehicle: carboxymethylcellulose (CMC)
[13] = dose: 100.0 mg/kg/injection, schedule: Q01DX001 (ip), vehicle: saline
[14] = dose: 200.0 mg/kg/injection, schedule: Q01DX001 (ip), vehicle: saline
[15] = dose: 400.0 mg/kg/injection, schedule: Q01DX001 (ip), vehicle: saline
[16] = dose: 100.0 mg/kg/injection, schedule: Q01DX009 (ip), vehicle: Klucel (hydroxypropylcellulose) (HPC)
[17] = dose: 200.0 mg/kg/injection, schedule: Q01DX009 (ip), vehicle: Klucel (hydroxypropylcellulose) (HPC)
[18] = dose: 400.0 mg/kg/injection, schedule: Q01DX009 (ip), vehicle: Klucel (hydroxypropylcellulose) (HPC)
[19] = dose: 100.0 mg/kg/injection, schedule: Q04DX003 (ip), vehicle: saline
[20] = dose: 200.0 mg/kg/injection, schedule: Q04DX003 (ip), vehicle: saline
[21] = dose: 400.0 mg/kg/injection, schedule: Q04DX003 (ip), vehicle: saline

Measured: T/C

COc1ccc(-n2cnc3c(=O)[nH]c(N)nc32)cc1NC(=O)Nc1cccc(S(=O)(=O)F)c1
inactive: dose: 50.0 mg/kg/injection, schedule: Q01DX001 (ip), vehicle: saline with Tween-80 95 % of control | [1] 92 % of control | [2] 100 % of control

Cc1cccc(C(=O)C=C(C(F)(F)F)C(F)(F)F)c1
inactive: dose: 12.5 mg/kg/injection, schedule: Q04DX003 (ip), vehicle: saline with Tween-80 103 % of control | dose: 25.0 mg/kg/injection, schedule: Q04DX003 (ip), vehicle: saline with Tween-80 111 % of control | dose: 50.0 mg/kg/injection, schedule: Q04DX003 (ip), vehicle: saline with Tween-80 102 % of control and 118 % of control

CCOC(=O)C1CCC(NC(=O)c2ccccc2)CC1 (stereo unspecified)
inactive: dose: 100.0 mg/kg/injection, schedule: Q01DX001 (ip), vehicle: Klucel (hydroxypropylcellulose) (HPC) 93 % of control | [3] 100 % of control | dose: 200.0 mg/kg/injection, schedule: Q01DX001 (ip), vehicle: Klucel (hydroxypropylcellulose) (HPC) 93 % of control | [4] 98 % of control | dose: 400.0 mg/kg/injection, schedule: Q01DX001 (ip), vehicle: Klucel (hydroxypropylcellulose) (HPC) 93 % of control | [5] 94 % of control

CCCOC(=O)Cc1cccc2ccccc12
inactive: dose: 222.0 mg/kg/injection, schedule: Q01DX Z (ip), vehicle: saline 90 % of control | dose: 333.0 mg/kg/injection, schedule: Q01DX Z (ip), vehicle: saline 96 % of control | dose: 500.0 mg/kg/injection, schedule: Q01DX Z (ip), vehicle: saline 96 % of control

NC(=O)Nc1ccccc1F
inactive: [6] 106 % of control | [7] 100 % of control | dose: 400.0 mg/kg/injection, schedule: Q04DX002 (ip), vehicle: Klucel (hydroxypropylcellulose) (HPC) 100 % of control

O=C(O)C(Br)C(Br)C(=O)Nc1ccc(F)cc1 (stereo unspecified)
inactive: [8] 104 % of control | [9] 93 % of control

Cc1ccc(S(=O)(=O)Nc2ccc(OS(=O)(=O)c3ccc(C)cc3)cc2)cc1
inactive: [10] 108 % of control | [11] 100 % of control | [12] 100 % of control

Cn1c(=O)cc(C=Nc2ccc(N=Nc3ccccc3)cc2)c2ccccc21
inactive: [13] 94 % of control | [14] 96 % of control | [15] 87 % of control

CC(N)c1ccccc1Cl (stereo unspecified)
inactive: dose: 12.5 mg/kg/injection, schedule: Q04DX003 (ip), vehicle: saline 107 % of control | dose: 25.0 mg/kg/injection, schedule: Q04DX003 (ip), vehicle: saline 96 % of control | dose: 50.0 mg/kg/injection, schedule: Q04DX003 (ip), vehicle: saline 96 % of control

NC(N)=Nc1nc(N)nc(N)n1
inactive: dose: 50.0 mg/kg/injection, schedule: Q01DX009 (ip), vehicle: saline with Tween-80 108 % of control

Cc1ccc(NC(=O)C(Cl)(Cl)Cl)cc1Cl
inactive: [16] 112 % of control | [17] 106 % of control | [18] 109 % of control

COc1ccccc1C(=O)N/N=C/c1ccccc1Cl
inactive: dose: 25.0 mg/kg/injection, schedule: Q01DX009 (ip), vehicle: Klucel (hydroxypropylcellulose) (HPC) 96 % of control | dose: 50.0 mg/kg/injection, schedule: Q01DX009 (ip), vehicle: Klucel (hydroxypropylcellulose) (HPC) 96 % of control | [16] 104 % of control and 105 % of control | [3] 108 % of control | [17] 108 % of control | [4] 111 % of control | [18] 103 % of control | [5] 108 % of control

Cc1cc(C)n(C(N)=O)n1
inactive: [16] 109 % of control | [3] 105 % of control and 104 % of control | [17] 104 % of control | [4] 97 % of control and 102 % of control | [18] 110 % of control | [5] 101 % of control and 104 % of control

S=C(Nc1ccccc1)Nc1cccc2ccccc12
inactive: dose: 50.0 mg/kg/injection, schedule: Q01DX001 (ip), vehicle: saline 97 % of control | [13] 103 % of control | [16] 105 % of control | [6] 87 % of control | [14] 97 % of control | [17] 105 % of control | [7] 87 % of control | [15] 94 % of control | [18] 112 % of control

CC([NH-])C(C)[NH-].CC([NH-])C(C)[NH-].[Cl][Co][Cl] (stereo unspecified)
inactive: dose: 50.0 mg/kg/injection, schedule: Q04DX002 (ip), vehicle: saline 102 % of control | dose: 100.0 mg/kg/injection, schedule: Q04DX002 (ip), vehicle: saline 112 % of control | dose: 200.0 mg/kg/injection, schedule: Q04DX002 (ip), vehicle: saline 122 % of control

CCCC1=CN(Cc2ccccc2)c2ccccc2C1
inactive: [13] 96 % of control | [19] 97 % of control | [14] 96 % of control | [20] 97 % of control | [15] 97 % of control | [21] 93 % of control

O=C(NO)Nc1cccc(Cl)c1
inactive: [10] 103 % of control | [11] 97 % of control | [12] 100 % of control

Cc1cc(OS(=O)(=O)/C=C/c2ccccc2)c(C(C)C)cc1Cl
inactive: dose: 100.0 mg/kg/injection, schedule: Q01DX001 (ip), vehicle: acetone 93 % of control | dose: 100.0 mg/kg/injection, schedule: Q01DX009 (ip), vehicle: acetone 100 % of control | dose: 200.0 mg/kg/injection, schedule: Q01DX001 (ip), vehicle: acetone 98 % of control | dose: 200.0 mg/kg/injection, schedule: Q01DX009 (ip), vehicle: acetone 98 % of control | dose: 400.0 mg/kg/injection, schedule: Q01DX001 (ip), vehicle: acetone 98 % of control | dose: 400.0 mg/kg/injection, schedule: Q01DX009 (ip), vehicle: acetone 95 % of control

c1ccc(N=Nc2ccnnc2)cc1
inactive: dose: 50.0 mg/kg/injection, schedule: Q04DX002 (ip), vehicle: saline with Tween-80 102 % of control | [8] 91 % of control | [9] 105 % of control

CC(=O)c1c(O)c(C)c(O)c2c1OC1=CC(=O)C(C(C)=O)C(=O)C12C (stereo unspecified)
inactive: dose: 5.0 mg/kg/injection, schedule: Q01DX009 (ip), vehicle: gum acacia 103 % of control | dose: 10.0 mg/kg/injection, schedule: Q01DX009 (ip), vehicle: gum acacia 101 % of control | dose: 20.0 mg/kg/injection, schedule: Q01DX009 (ip), vehicle: gum acacia 103 % of control | dose: 40.0 mg/kg/injection, schedule: Q01DX009 (ip), vehicle: gum acacia 94 % of control | dose: 80.0 mg/kg/injection, schedule: Q01DX009 (ip), vehicle: gum acacia 86 % of control

[Si]C1CCCCC1
inactive: [1] 96 % of control | [2] 89 % of control | dose: 400.0 mg/kg/injection, schedule: Q01DX001 (ip), vehicle: saline with Tween-80 96 % of control

COC(=O)C(COS(=O)(=O)c1ccccc1)NC(=O)OCc1ccccc1 (stereo unspecified)
inactive: dose: 100.0 mg/kg/injection, schedule: Q01DX009 (ip), vehicle: saline 100 % of control | [19] 92 % of control | dose: 200.0 mg/kg/injection, schedule: Q01DX009 (ip), vehicle: saline 98 % of control | [20] 97 % of control | dose: 400.0 mg/kg/injection, schedule: Q01DX009 (ip), vehicle: saline 96 % of control | [21] 95 % of control

CCCCCCCCCCCCCCCCOC(=O)C[n+]1ccc(C(N)=O)cc1
inactive: dose: 100.0 mg/kg/injection, schedule: Q04DX003 (ip), vehicle: acetone 97 % of control | dose: 200.0 mg/kg/injection, schedule: Q04DX003 (ip), vehicle: acetone 90 % of control

CC1(C)CC(OP(=O)(Cl)OC2CC(C)(C)N(O)C(C)(C)C2)CC(C)(C)N1O
inactive: dose: 100.0 mg/kg/injection, schedule: Q01DX001 (ip), vehicle: water 97 % of control | dose: 200.0 mg/kg/injection, schedule: Q01DX001 (ip), vehicle: water 94 % of control | dose: 400.0 mg/kg/injection, schedule: Q01DX001 (ip), vehicle: water 94 % of control
